Results published in PubChem BioAssay (NCI).
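Protocol summary: plate cells (96-well), add compound at 5 concentrations, incubate 48 h, interpolate endpoints linearly. TGI marks complete inhibition of growth.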

Tests used:
Assay in all cases: NCI-60 cell line screen, 48 h
[1] = system: 786-0 renal
[2] = system: A498 renal
[3] = system: A549 NSCLC
[4] = system: ACHN renal
[5] = system: CAKI-1 renal
[6] = system: CCRF-CEM leukemia
[7] = system: COLO 205 colon
[8] = system: DLD-1 colon
[9] = system: DMS 114 small cell lung
[10] = system: DMS 273 small cell lung
[11] = system: EKVX NSCLC
[12] = system: HCC-2998 colon
[13] = system: HCT-116 colon
[14] = system: HCT-15 colon
[15] = system: HL-60(TB) leukemia
[16] = system: HOP-62 NSCLC
[17] = system: HOP-92 NSCLC
[18] = system: HT29 colon
[19] = system: IGROV1 ovarian
[20] = system: K-562 leukemia
[21] = system: KM12 colon
[22] = system: KM20L2 colon
[23] = system: LOX IMVI melanoma
[24] = system: LXFL 529 NSCLC
[25] = system: M14 melanoma
[26] = system: M19-MEL melanoma
[27] = system: MALME-3M melanoma
[28] = system: MOLT-4 leukemia
[29] = system: NCI-H226 lung
[30] = system: NCI-H23 lung
[31] = system: NCI-H460 lung
[32] = system: NCI-H522 lung
[33] = system: OVCAR-3 ovarian
[34] = system: OVCAR-4 ovarian
[35] = system: OVCAR-5 ovarian
[36] = system: OVCAR-8 ovarian
[37] = system: RPMI-8226 leukemia
[38] = system: RXF 393 renal
[39] = system: RXF-631 renal
[40] = system: SF-295 CNS
[41] = system: SF-539 CNS
[42] = system: SK-MEL-2 melanoma
[43] = system: SK-MEL-28 melanoma
[44] = system: SK-MEL-5 melanoma
[45] = system: SK-OV-3 ovarian
[46] = system: SN12C renal
[47] = system: SNB-19 CNS
[48] = system: SNB-75 CNS
[49] = system: SNB-78 CNS
[50] = system: SR leukemia
[51] = system: SW-620 colon
[52] = system: TK-10 renal
[53] = system: U251 CNS
[54] = system: UACC-257 melanoma
[55] = system: UACC-62 melanoma
[56] = system: UO-31 renal
[57] = system: SF-268 CNS
[58] = system: XF 498 CNS
[59] = system: HOP-18 NSCLC

SMILES: O=C(C#Cc1ccccc1)N1c2ccccc2CC1c1c[nH]c2ccccc12 (stereo not drawn)
- TGI [1]: 34.8 µM
- TGI [2]: 73 µM
- TGI [3]: 49.1 µM
- TGI [4]: 66 µM
- TGI [5]: 33.2 µM
- TGI [6]: 32 µM
- TGI [7]: 31.6 µM
- TGI [8]: 76.7 µM
- TGI [9]: 28.8 µM
- TGI [10]: 30 µM
- TGI [11]: 42.1 µM
- TGI [12]: 31.3 µM
- TGI [13]: 26.5 µM
- TGI [14]: 24.9 µM
- TGI [15]: 36.2 µM
- TGI [16]: 26.9 µM
- TGI [17]: 32.5 µM
- TGI [18]: 40.6 µM
- TGI [19]: 25.3 µM
- TGI [20]: 49 µM
- TGI [21]: 31.5 µM
- TGI [22]: 67.5 µM
- TGI [23]: 19.7 µM
- TGI [24]: 27.7 µM
- TGI [25]: 28.8 µM
- TGI [26]: 43.1 µM
- TGI [27]: 37.6 µM
- TGI [28]: 46.6 µM
- TGI [29]: 25.8 µM
- TGI [30]: 32.4 µM
- TGI [31]: 42.3 µM
- TGI [32]: 24.1 µM
- TGI [33]: 32.1 µM
- TGI [34]: 69.6 µM
- TGI [35]: 64.4 µM
- TGI [36]: 27.5 µM
- TGI [37]: 43.2 µM
- TGI [38]: 19.5 µM
- TGI [39]: 27.7 µM
- TGI [40]: 49.7 µM
- TGI [41]: 31.1 µM
- TGI [42]: 26.6 µM
- TGI [43]: 30.5 µM
- TGI [44]: 30 µM
- TGI [45]: 51 µM
- TGI [46]: 26.9 µM
- TGI [47]: > 100 µM
- TGI [48]: 37.6 µM
- TGI [49]: 36.9 µM
- TGI [50]: 45.3 µM
- TGI [51]: 30.3 µM
- TGI [52]: 44.2 µM
- TGI [53]: 35.8 µM
- TGI [54]: 42 µM
- TGI [55]: 22.8 µM
- TGI [56]: > 100 µM

SMILES: O=c1cccccc1NCCCCCCCNc1cccccc1=O
- TGI [1]: > 100 µM
- TGI [3]: > 100 µM
- TGI [4]: > 100 µM
- TGI [5]: > 100 µM
- TGI [6]: 67.2 µM
- TGI [7]: > 100 µM
- TGI [8]: > 100 µM
- TGI [10]: > 100 µM
- TGI [11]: > 100 µM
- TGI [13]: > 100 µM
- TGI [14]: > 100 µM
- TGI [15]: 30 µM
- TGI [16]: > 100 µM
- TGI [17]: 97.8 µM
- TGI [18]: > 100 µM
- TGI [19]: > 100 µM
- TGI [20]: > 100 µM
- TGI [21]: > 100 µM
- TGI [22]: > 100 µM
- TGI [23]: > 100 µM
- TGI [24]: > 100 µM
- TGI [25]: 74.6 µM
- TGI [26]: 84.8 µM
- TGI [27]: > 100 µM
- TGI [28]: 53.4 µM
- TGI [29]: > 100 µM
- TGI [30]: > 100 µM
- TGI [31]: > 100 µM
- TGI [32]: 55.2 µM
- TGI [33]: > 100 µM
- TGI [34]: > 100 µM
- TGI [35]: > 100 µM
- TGI [36]: > 100 µM
- TGI [37]: 55.1 µM
- TGI [38]: 25.8 µM
- TGI [39]: 35 µM
- TGI [57]: > 100 µM
- TGI [40]: > 100 µM
- TGI [41]: > 100 µM
- TGI [42]: > 100 µM
- TGI [45]: > 100 µM
- TGI [46]: > 100 µM
- TGI [47]: > 100 µM
- TGI [48]: > 100 µM
- TGI [49]: > 100 µM
- TGI [50]: 89.8 µM
- TGI [51]: > 100 µM
- TGI [54]: 45.7 µM
- TGI [55]: 84.5 µM
- TGI [56]: 80.3 µM
- TGI [58]: 32.8 µM

SMILES: CCCc1c(C(=O)OCC)[nH]c(-c2ccc(-c3[nH]c(C(=O)OCC)c(CCC)c3C(=O)OCC)s2)c1C(=O)OCC
- TGI [1]: > 100 µM
- TGI [2]: > 100 µM
- TGI [3]: > 100 µM
- TGI [4]: > 100 µM
- TGI [5]: > 100 µM
- TGI [6]: > 100 µM
- TGI [7]: > 100 µM
- TGI [8]: > 100 µM
- TGI [9]: > 100 µM
- TGI [10]: > 100 µM
- TGI [11]: > 100 µM
- TGI [12]: > 100 µM
- TGI [13]: > 100 µM
- TGI [14]: > 100 µM
- TGI [15]: > 100 µM
- TGI [59]: > 100 µM
- TGI [17]: 85.2 µM
- TGI [18]: > 100 µM
- TGI [19]: > 100 µM
- TGI [20]: > 100 µM
- TGI [21]: > 100 µM
- TGI [22]: > 100 µM
- TGI [23]: 66.3 µM
- TGI [24]: > 100 µM
- TGI [25]: > 100 µM
- TGI [26]: > 100 µM
- TGI [27]: > 100 µM
- TGI [28]: > 100 µM
- TGI [29]: > 100 µM
- TGI [30]: > 100 µM
- TGI [31]: > 100 µM
- TGI [32]: > 100 µM
- TGI [33]: > 100 µM
- TGI [34]: > 100 µM
- TGI [35]: > 100 µM
- TGI [36]: > 100 µM
- TGI [37]: > 100 µM
- TGI [38]: 28.5 µM
- TGI [57]: > 100 µM
- TGI [40]: > 100 µM
- TGI [41]: > 100 µM
- TGI [42]: 57.2 µM
- TGI [43]: > 100 µM
- TGI [44]: > 100 µM
- TGI [45]: 98.6 µM
- TGI [46]: > 100 µM
- TGI [47]: > 100 µM
- TGI [48]: 58 µM
- TGI [49]: > 100 µM
- TGI [50]: > 100 µM
- TGI [51]: > 100 µM
- TGI [52]: > 100 µM
- TGI [53]: > 100 µM
- TGI [54]: > 100 µM
- TGI [55]: > 100 µM
- TGI [56]: > 100 µM
- TGI [58]: > 100 µM

SMILES: COc1ccc(-c2cc(C(=O)Nc3cc(C(F)(F)F)cc(C(F)(F)F)c3)c3ccccc3n2)cc1
- TGI [1]: 28.1 µM
- TGI [2]: 40 µM
- TGI [3]: 17.5 µM
- TGI [4]: 76.2 µM
- TGI [5]: 25.5 µM
- TGI [6]: > 100 µM
- TGI [7]: 28.4 µM
- TGI [8]: 43.6 µM
- TGI [9]: 21.1 µM
- TGI [10]: 21.1 µM
- TGI [11]: 27.4 µM
- TGI [12]: 29.7 µM
- TGI [13]: 18.6 µM
- TGI [14]: 28.7 µM
- TGI [15]: > 100 µM
- TGI [59]: 51.8 µM
- TGI [16]: 30.3 µM
- TGI [18]: 36.1 µM
- TGI [19]: 44.9 µM
- TGI [20]: > 100 µM
- TGI [21]: 35.1 µM
- TGI [22]: 31.4 µM
- TGI [23]: 29.1 µM
- TGI [24]: 20.9 µM
- TGI [25]: 25 µM
- TGI [26]: 63 µM
- TGI [27]: 46.4 µM
- TGI [28]: > 100 µM
- TGI [29]: 46.9 µM
- TGI [30]: 19.2 µM
- TGI [31]: 19.4 µM
- TGI [33]: 15.5 µM
- TGI [34]: > 100 µM
- TGI [35]: > 100 µM
- TGI [36]: 38.9 µM
- TGI [37]: > 100 µM
- TGI [38]: 21 µM
- TGI [57]: 32.2 µM
- TGI [40]: 32.5 µM
- TGI [41]: 28.4 µM
- TGI [42]: 30.6 µM
- TGI [43]: 73.9 µM
- TGI [44]: 34.6 µM
- TGI [46]: 25.1 µM
- TGI [48]: 29.6 µM
- TGI [49]: 52.1 µM
- TGI [50]: 38.5 µM
- TGI [51]: 21 µM
- TGI [52]: 29.5 µM
- TGI [53]: 15.5 µM
- TGI [54]: 51.4 µM
- TGI [55]: > 100 µM
- TGI [56]: > 100 µM
- TGI [58]: 22.5 µM
